This note sets out measurements from PMC4876444, “Two-Photon Enzymatic Probes Visualizing Sub-cellular/Deep-brain Caspase Activities in Neurodegenerative Models” (Scientific Reports, 2016).

The test system of series [1] is HeLa cells. The experiment in a line: Permeability of free dye and probes in live cells (fluorescence imaging). The format is cell-based, human. The following applies: live HeLa cells, probes 24 μM (AAN 5 μM), 1 h, 37 °C, one-photon fluorescence imaging with LysoTracker. The procedure: Supplementary Figure 5. Detection of caspase activities in live mammalian cells. (a) One-photon images of AAN (5 μM)/probes (24 μM)/DMSO (blank) in live HeLa cells after 1-h incubation together with LysoTracker. (Panels 1-7) bright field; (Panels 8-14) λex = 405 nm, λem = 420-480 nm (indicative of probes, blue); (Panels 15-21) λex = 405 nm, λem = 470-500 nm (indicative of AAN, green); (Panels 22-28) LysoTracker (λex = 543 nm, λem = 560-615 nm, red); (Panels 29-35) merged images of blue/red channels. Scale bar: 20 μm. (b) Bioimaging of NIH/3T3 cells transfected with active caspase-1 (Panels 2/3/5/6; 50 ng)/caspase-3 (Panels 8/9; 15 ng)/caspase-8 (Panels 11/12; 5 ng) with/without inhibitor treatment (Panels 3/6/9/12, 50 μM of Z-VAD-FMK incubated for 1 h before probes were added) as well as control cells (Panels 1/4/7/10, no caspase transfection) by using C1RB (24 μM)/C1FS (12 μM) for caspase-1, C3RA (24 μM) for caspase-3 and C8RA (24 μM) for caspase-8. Cells were co-stained with membrane tracker. (Green) signals from caspase-cleaved probes (λex = 760 nm, λem = 480-550 nm for all probes, except for C1FS with λem = 450-550 nm). (Red) membrane tracker (λex = 650 nm, λem = 655-740 nm). (Inset) bright field. Scale bar = 10 μm. […]
XTT assay. The cytotoxicity of our probes was determined by using the XTT colorimetric cell proliferation kit (Roche) following manufacturer’s guidelines. […]

Series [2] concerns caspase-3/-7-like activities in brain slices. The experiment in a line: TPFM of caspase-3 activation in brain slices of ethanol-intoxicated mouse. The following applies: 200 μM, 3 h prior to C3RA. The procedure: Figure 4 Imaging endogenous caspase activities in deep tissues. (a) TPFM of caspase-3 activation in brain slices of ethanol-intoxicated 7-day-old C57BL/6 mouse using C3RA (120 μM, 3 h). Top: 3D images of the mouse brain slice taken along the Z-axis from 0 to 160 μm at 10x magnification. Bottom: images taken at a depth of 120 μm at 40x magnification. […]: control slices (saline-treated); panels 2/6/4/8: treated with caspase-3/7 inhibitor I (200 μM, 3 h). Scale bar = 50 μm. (b) RFU readings extracted from (a) (FTPFM, blue bars) versus those from in vitro enzymatic assays using lysates from the same brain slices (RFU, orange bars). The signal from saline controls was set as “0” and that from ethanol-treated samples was set as “1” in RFU quantification. Due to the base-level active caspase-3 in the saline controls, negative readings were shown with inhibitor-treated samples. (c) WB analysis of caspase-3/-1/-8 activation in lysates of the same mouse brain slices shown in (a). (d) Normalized RFU readings from in vitro enzymatic assays using brain lysates (300 μg) of saline/ethanol treated mice after incubation with C1RB/C3RA/C8RA (6 μM) for 1 h at 37 °C.
All two-photon images were taken on a Leica TCS SP5X Confocal Microscope System. […]

As to `CC(=O)c1ccc2cc(N)ccc2c1` [AAN, 2-acetyl-6-aminonaphthalene, reference compound], the cell permeability result in series [1] is listed as “diffuse freely”. As to `COC[C@@H]1CCCN1S(=O)(=O)c1ccc2c(c1)C(=O)C(=O)N2` [caspase-3/7 inhibitor I, reference compound], the “effect of inhibitor pre-treatment on C3RA fluorescence in brain slices” value in series [2] is “completely abolished the fluorescence”.
